Columns and labels:
HiBit-BRM fusion protein = target: T1, HiBit-BRM fusion protein (Homo sapiens, UniProt P51531); assay: HiBiT-BRM cell-based degradation assay (Nano-Glo HiBiT lytic detection, 24 h); conditions: HeLa cell line expressing HiBiT-BRM; for DC50: read-out: BRM HiBit Degradation IC50
T1 construct: expressed in transfected cells
Summary of the method: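 Luminescence from LgBiT complementation quantified remaining HiBiT-BRM in stably expressing HeLa cells after 24 h compound exposure (top final dose 30 μM, 3-fold, 10 points, duplicate). Degradation expressed as percent relative to DMSO and a 2 μM reference degrader.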

[1] = target: T2, HiBit-BRG1 fusion protein (Homo sapiens, UniProt P51532); assay: HiBiT-BRG1 cell-based degradation assay (Nano-Glo HiBiT lytic detection, 24 h); conditions: HeLa cell line expressing HiBit-BRG1 and LgBit; for Dmax: read-out: BRG1 HiBit Degradation Maximum (%); for DC50: read-out: BRMG1 HiBit Degradation IC50
T2 construct: expressed in transfected cells
Summary of the method: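 Luminescence from HiBiT/LgBiT complementation after lytic detection reagent was read following 24 h compound exposure of HeLa cells stably carrying HiBiT-BRG1 plus LgBiT (5000 cells/well). Signal scaled to % degradation using DMSO-treated cells as 0% and cells given 2 μM known BRM/BRG1 degrader as 100%.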

T1 sequence (P51531 whole entry, the tested form may be a part): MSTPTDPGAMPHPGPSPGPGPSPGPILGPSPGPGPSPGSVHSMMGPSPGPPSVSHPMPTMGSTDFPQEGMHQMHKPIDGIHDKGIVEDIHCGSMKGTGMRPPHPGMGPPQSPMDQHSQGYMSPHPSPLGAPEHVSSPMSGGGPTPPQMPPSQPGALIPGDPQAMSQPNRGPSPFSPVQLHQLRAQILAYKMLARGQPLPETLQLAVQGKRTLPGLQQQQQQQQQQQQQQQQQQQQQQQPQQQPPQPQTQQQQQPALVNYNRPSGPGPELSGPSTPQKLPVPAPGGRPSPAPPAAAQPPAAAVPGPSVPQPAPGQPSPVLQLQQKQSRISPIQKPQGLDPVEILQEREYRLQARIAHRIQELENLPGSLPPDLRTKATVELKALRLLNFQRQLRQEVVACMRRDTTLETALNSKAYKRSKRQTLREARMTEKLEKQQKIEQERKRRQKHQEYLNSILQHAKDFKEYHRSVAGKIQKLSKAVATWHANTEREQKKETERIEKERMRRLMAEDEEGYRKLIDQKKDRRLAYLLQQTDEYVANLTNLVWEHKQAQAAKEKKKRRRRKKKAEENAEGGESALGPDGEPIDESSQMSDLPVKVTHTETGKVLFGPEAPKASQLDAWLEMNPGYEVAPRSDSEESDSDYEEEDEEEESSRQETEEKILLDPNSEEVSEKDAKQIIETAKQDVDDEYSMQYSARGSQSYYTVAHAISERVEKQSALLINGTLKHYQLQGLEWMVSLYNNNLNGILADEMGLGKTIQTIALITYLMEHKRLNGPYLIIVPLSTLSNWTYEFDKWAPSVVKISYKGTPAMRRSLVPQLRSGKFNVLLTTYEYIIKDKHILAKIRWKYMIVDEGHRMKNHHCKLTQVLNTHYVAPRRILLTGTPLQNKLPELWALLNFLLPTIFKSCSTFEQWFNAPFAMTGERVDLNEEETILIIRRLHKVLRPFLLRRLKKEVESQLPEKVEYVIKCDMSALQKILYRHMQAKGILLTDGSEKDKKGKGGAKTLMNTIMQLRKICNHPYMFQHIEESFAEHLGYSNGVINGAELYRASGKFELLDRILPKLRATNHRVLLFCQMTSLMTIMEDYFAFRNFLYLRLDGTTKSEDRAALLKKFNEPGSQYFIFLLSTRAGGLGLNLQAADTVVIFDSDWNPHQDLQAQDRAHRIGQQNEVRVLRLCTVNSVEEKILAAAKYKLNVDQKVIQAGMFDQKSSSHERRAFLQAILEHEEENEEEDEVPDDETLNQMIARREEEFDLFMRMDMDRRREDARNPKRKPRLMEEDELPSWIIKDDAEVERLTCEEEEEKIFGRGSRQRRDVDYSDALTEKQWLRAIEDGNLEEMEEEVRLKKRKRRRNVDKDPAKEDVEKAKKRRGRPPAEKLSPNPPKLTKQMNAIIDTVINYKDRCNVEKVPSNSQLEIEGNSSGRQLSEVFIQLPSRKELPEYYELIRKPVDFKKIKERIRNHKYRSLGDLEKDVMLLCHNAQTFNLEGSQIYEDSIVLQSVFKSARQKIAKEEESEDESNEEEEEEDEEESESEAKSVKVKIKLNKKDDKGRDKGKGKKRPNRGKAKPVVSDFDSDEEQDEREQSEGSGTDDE
T2 sequence (P51532 whole entry, the tested form may be a part): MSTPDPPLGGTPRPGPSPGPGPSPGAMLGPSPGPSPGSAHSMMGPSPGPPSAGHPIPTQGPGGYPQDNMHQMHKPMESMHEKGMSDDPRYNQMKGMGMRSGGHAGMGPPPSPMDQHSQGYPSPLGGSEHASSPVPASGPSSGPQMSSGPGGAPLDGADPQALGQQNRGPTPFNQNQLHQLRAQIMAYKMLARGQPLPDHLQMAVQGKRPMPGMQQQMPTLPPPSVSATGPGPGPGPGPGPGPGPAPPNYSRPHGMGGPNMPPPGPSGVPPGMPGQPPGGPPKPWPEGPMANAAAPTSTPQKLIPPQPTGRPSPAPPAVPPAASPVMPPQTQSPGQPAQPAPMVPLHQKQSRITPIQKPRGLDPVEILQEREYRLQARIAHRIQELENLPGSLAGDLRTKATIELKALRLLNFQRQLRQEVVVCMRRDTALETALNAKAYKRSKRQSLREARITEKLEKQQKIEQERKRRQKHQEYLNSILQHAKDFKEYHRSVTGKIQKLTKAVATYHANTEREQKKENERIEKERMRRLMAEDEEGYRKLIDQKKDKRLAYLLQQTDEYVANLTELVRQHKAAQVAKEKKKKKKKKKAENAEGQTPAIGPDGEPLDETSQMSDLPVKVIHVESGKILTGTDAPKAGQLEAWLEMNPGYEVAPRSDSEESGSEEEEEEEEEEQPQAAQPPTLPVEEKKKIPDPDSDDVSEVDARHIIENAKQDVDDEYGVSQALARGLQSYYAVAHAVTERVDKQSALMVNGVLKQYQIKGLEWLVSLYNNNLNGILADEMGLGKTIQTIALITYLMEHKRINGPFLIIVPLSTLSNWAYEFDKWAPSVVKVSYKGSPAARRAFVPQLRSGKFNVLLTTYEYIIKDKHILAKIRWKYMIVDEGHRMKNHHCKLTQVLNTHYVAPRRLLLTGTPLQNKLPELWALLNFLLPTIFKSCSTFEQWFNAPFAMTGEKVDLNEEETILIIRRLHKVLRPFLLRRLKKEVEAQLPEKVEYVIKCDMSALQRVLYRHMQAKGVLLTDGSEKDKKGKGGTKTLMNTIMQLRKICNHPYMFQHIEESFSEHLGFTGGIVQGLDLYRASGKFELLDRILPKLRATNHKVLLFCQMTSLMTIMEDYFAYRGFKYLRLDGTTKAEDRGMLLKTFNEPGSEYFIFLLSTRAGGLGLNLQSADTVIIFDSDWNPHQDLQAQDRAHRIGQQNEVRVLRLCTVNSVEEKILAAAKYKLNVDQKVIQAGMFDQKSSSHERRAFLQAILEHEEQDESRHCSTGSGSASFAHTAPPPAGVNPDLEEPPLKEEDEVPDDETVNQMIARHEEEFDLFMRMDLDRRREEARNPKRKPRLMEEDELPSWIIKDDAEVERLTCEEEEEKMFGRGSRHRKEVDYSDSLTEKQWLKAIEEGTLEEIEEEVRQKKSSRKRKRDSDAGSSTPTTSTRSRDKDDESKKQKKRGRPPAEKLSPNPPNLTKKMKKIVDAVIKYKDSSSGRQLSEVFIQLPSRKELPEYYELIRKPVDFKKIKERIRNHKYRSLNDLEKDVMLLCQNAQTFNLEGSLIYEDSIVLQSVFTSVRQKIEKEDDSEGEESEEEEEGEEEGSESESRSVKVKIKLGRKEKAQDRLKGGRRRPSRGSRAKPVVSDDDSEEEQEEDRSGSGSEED

SMILES | BRM HiBit Degradation Maximum (%) (HiBit-BRM fusion protein) | DC50 (HiBit-BRM fusion protein) | Dmax [1] | DC50 [1]
Cc1ncsc1-c1ccc([C@H](C)NC(=O)[C@@H]2C[C@@H](O)CN2C(=O)[C@H](C(C)C)n2cc(-c3cnc(N4CC[C@H](c5cc6nnc(-c7ccccc7O)cc6n5C5CC5)C4)nc3)nn2)cc1 [Compound 74, (2S,4R)-1-((S)-2-(4-(2-((S)-3-(5-cyclopropyl-3-(2-hydroxyphenyl)-5H-pyrrolo[3,2-c]pyridazin-6-yl)pyrrolidin-1-yl)pyrimidin-5-yl)-1H-1,2,3-triazol-1-yl)-3-methylbutanoyl)-4-hydroxy-N—((S)-1-(4-(4-methylthiazol-5-yl)phenyl)ethyl)pyrrolidine-2-carboxamide] | A (“A” indicates maximum degradation ≥75%) | < 10 nM | > 50% | < 10 nM
Cc1ncsc1-c1ccc([C@H](C)NC(=O)[C@@H]2C[C@@H](O)CN2C(=O)[C@@H](C(C)C)n2cc(-c3cnc(N4CC[C@H](c5cc6nnc(-c7ccccc7O)cc6n5C5CC5)C4)nc3)nn2)cc1 [Compound 75, (2S,4R)-1-((R)-2-(4-(2-((S)-3-(5-cyclopropyl-3-(2-hydroxyphenyl)-5H-pyrrolo[3,2-c]pyridazin-6-yl)pyrrolidin-1-yl)pyrimidin-5-yl)-1H-1,2,3-triazol-1-yl)-3-methylbutanoyl)-4-hydroxy-N—((S)-1-(4-(4-methylthiazol-5-yl)phenyl)ethyl)pyrrolidine-2-carboxamide] | A (“A” indicates maximum degradation ≥75%) | > 10 nM | < 50% | –
Cc1ncsc1-c1ccc([C@H](C)NC(=O)[C@@H]2C[C@@H](O)CN2C(=O)[C@@H](c2cc(N3CCC(c4cc5nnc(-c6ccccc6O)cc5n4C4CC4)CC3)no2)C(C)C)cc1 [Compound 76, (2S,4R)-1-((R)-2-(3-(4-(5-cyclopropyl-3-(2-hydroxyphenyl)-5H-pyrrolo[3,2-c]pyridazin-6-yl)piperidin-1-yl)isoxazol-5-yl)-3-methylbutanoyl)-4-hydroxy-N-((S)-1-(4-(4-methylthiazol-5-yl)phenyl)ethyl)pyrrolidine-2-carboxamide] | A (“A” indicates maximum degradation ≥75%) | < 10 nM | < 50% | –
Cc1ncsc1-c1ccc([C@H](C)NC(=O)[C@@H]2C[C@@H](O)CN2C(=O)[C@@H](c2cc(N3CC4(CC(c5cc6nnc(-c7ccccc7O)cc6n5CC5CC5)C4)C3)no2)C(C)C)cc1 [Compound 77, (2S,4R)-1-((R)-2-(3-(6-(5-(cyclopropylmethyl)-3-(2-hydroxyphenyl)-5H-pyrrolo[3,2-c]pyridazin-6-yl)-2-azaspiro[3.3]heptan-2-yl)isoxazol-5-yl)-3-methylbutanoyl)-4-hydroxy-N-((S)-1-(4-(4-methylthiazol-5-yl)phenyl)ethyl)pyrrolidine-2-carboxamide] | A (“A” indicates maximum degradation ≥75%) | < 10 nM | < 50% | –
Cc1ncsc1-c1ccc([C@H](C)NC(=O)[C@@H]2C[C@@H](O)CN2C(=O)[C@@H](c2cc(N3CC4(CC(c5cc6nnc(-c7ccccc7O)cc6n5C5CC5)C4)C3)no2)C(C)C)cc1 [Compound 78, (2S,4R)-1-((R)-2-(3-(6-(5-cyclopropyl-3-(2-hydroxyphenyl)-5H-pyrrolo[3,2-c]pyridazin-6-yl)-2-azaspiro[3.3]heptan-2-yl)isoxazol-5-yl)-3-methylbutanoyl)-4-hydroxy-N-((S)-1-(4-(4-methylthiazol-5-yl)phenyl)ethyl)pyrrolidine-2-carboxamide] | A (“A” indicates maximum degradation ≥75%) | < 10 nM | < 50% | –
Cc1ncsc1-c1ccc([C@H](C)NC(=O)[C@@H]2C[C@@H](O)CN2C(=O)[C@@H](c2cc(N3CC[C@H](c4cc5nnc(-c6ccccc6O)cc5n4C4CCC4)C3)no2)C(C)C)cc1 [Compound 79, (2S,4R)-1-((R)-2-(3-((S)-3-(5-cyclobutyl-3-(2-hydroxyphenyl)-5H-pyrrolo[3,2-c]pyridazin-6-yl)pyrrolidin-1-yl)isoxazol-5-yl)-3-methylbutanoyl)-4-hydroxy-N-((S)-1-(4-(4-methylthiazol-5-yl)phenyl)ethyl)pyrrolidine-2-carboxamide] | A (“A” indicates maximum degradation ≥75%) | > 10 nM | < 50% | –
Cc1ncsc1-c1ccc([C@H](C)NC(=O)[C@@H]2C[C@@H](O)CN2C(=O)[C@@H](c2cc(N3CC[C@H](c4cc5nnc(-c6ccccc6O)cc5n4C4(C)CC4)C3)no2)C(C)C)cc1 [Compound 80, (2S,4R)-4-hydroxy-1-((R)-2-(3-((S)-3-(3-(2-hydroxyphenyl)-5-(1-methylcyclopropyl)-5H-pyrrolo[3,2-c]pyridazin-6-yl)pyrrolidin-1-yl)isoxazol-5-yl)-3-methylbutanoyl)-N-((S)-1-(4-(4-methylthiazol-5-yl)phenyl)ethyl)pyrrolidine-2-carboxamide] | A (“A” indicates maximum degradation ≥75%) | > 10 nM | > 75% | > 10 nM
Cc1ncsc1-c1ccc([C@H](C)NC(=O)[C@@H]2C[C@@H](O)CN2C(=O)[C@@H](c2cc(N3CC[C@@H](c4cc5nnc(-c6ccccc6O)cc5n4C4(C)CC4)C3)no2)C(C)C)cc1 [Compound 81, (2S,4R)-4-hydroxy-1-((R)-2-(3-((R)-3-(3-(2-hydroxyphenyl)-5-(1-methylcyclopropyl)-5H-pyrrolo[3,2-c]pyridazin-6-yl)pyrrolidin-1-yl)isoxazol-5-yl)-3-methylbutanoyl)-N-((S)-1-(4-(4-methylthiazol-5-yl)phenyl)ethyl)pyrrolidine-2-carboxamide] | A (“A” indicates maximum degradation ≥75%) | < 10 nM | > 75% | < 10 nM
Cc1ncsc1-c1ccc([C@H](C)NC(=O)[C@@H]2C[C@@H](O)CN2C(=O)[C@@H](c2cc(-c3ccnc(N4CC[C@@H](c5cc6nnc(-c7ccccc7O)cc6n5C5CC5)C4)c3)no2)C(C)C)cc1 [Compound 82, (2S,4R)-1-[(2R)-2-(3-{2-[(3R)-3-[5-cyclopropyl-3-(2-hydroxyphenyl)pyrrolo [3,2-c]pyridazin-6-yl]pyrrolidin-1-yl]pyridin-4-yl}-1,2-oxazol-5-yl)-3-methylbutanoyl]-4-hydroxy-N-[(1S)-1-[4-(4-methyl-1,3-thiazol-5-yl)phenyl]ethyl]pyrrolidine-2-carboxamide] | A (“A” indicates maximum degradation ≥75%) | < 10 nM | > 50% | > 10 nM
Cc1ncsc1-c1ccc(CNC(=O)[C@@H]2C[C@@H](O)CN2C(=O)[C@@H](c2cc(N3CCC4(CC3)CC(c3cc5nnc(-c6ccccc6O)cc5n3C3CC3)C4)no2)C(C)C)cc1 [Compound 84, (2S,4R)-1-((R)-2-(3-(2-(5-cyclopropyl-3-(2-hydroxyphenyl)-5H-pyrrolo[3,2-c]pyridazin-6-yl)-7-azaspiro[3.5]nonan-7-yl)isoxazol-5-yl)-3-methylbutanoyl)-4-hydroxy-N-(4-(4-methylthiazol-5-yl)benzyl)pyrrolidine-2-carboxamide] | A (“A” indicates maximum degradation ≥75%) | < 10 nM | < 50% | –
Cc1ncsc1-c1ccc([C@H](C)NC(=O)[C@@H]2C[C@@H](O)CN2C(=O)[C@@H](c2cc(N3CCC4(CCC(c5cc6nnc(-c7ccccc7O)cc6n5C5CC5)CC4)CC3)no2)C(C)C)cc1 [Compound 85, (2S,4R)-1-((R)-2-(3-(9-(5-cyclopropyl-3-(2-hydroxyphenyl)-5H-pyrrolo[3,2-c]pyridazin-6-yl)-3-azaspiro[5.5]undecan-3-yl)isoxazol-5-yl)-3-methylbutanoyl)-4-hydroxy-N-((S)-1-(4-(4-methylthiazol-5-yl)phenyl)ethyl)pyrrolidine-2-carboxamide] | A (“A” indicates maximum degradation ≥75%) | < 10 nM | > 75% | > 10 nM
Cc1ncsc1-c1ccc([C@H](C)NC(=O)[C@@H]2C[C@@H](O)CN2C(=O)[C@@H](c2cc(N3CCC4(CC3)CC(c3cc5nnc(-c6ccccc6O)cc5n3CC3CC3)C4)no2)C(C)C)cc1 [Compound 86, (2S,4R)-1-((R)-2-(3-(2-(5-(cyclopropylmethyl)-3-(2-hydroxyphenyl)-5H-pyrrolo[3,2-c]pyridazin-6-yl)-7-azaspiro[3.5]nonan-7-yl)isoxazol-5-yl)-3-methylbutanoyl)-4-hydroxy-N-((S)-1-(4-(4-methylthiazol-5-yl)phenyl)ethyl)pyrrolidine-2-carboxamide] | A (“A” indicates maximum degradation ≥75%) | < 10 nM | < 50% | –
Cc1ncsc1-c1ccc([C@H](C)NC(=O)[C@@H]2C[C@@H](O)CN2C(=O)[C@@H](c2cc(N3CC4(CCC(c5cc6nnc(-c7ccccc7O)cc6n5C5CC5)CC4)C3)no2)C(C)C)cc1 [Compound 87, (2S,4R)-1-((R)-2-(3-(7-(5-cyclopropyl-3-(2-hydroxyphenyl)-5H-pyrrolo[3,2-c]pyridazin-6-yl)-2-azaspiro[3.5]nonan-2-yl)isoxazol-5-yl)-3-methylbutanoyl)-4-hydroxy-N-((S)-1-(4-(4-methylthiazol-5-yl)phenyl)ethyl)pyrrolidine-2-carboxamide] | A (“A” indicates maximum degradation ≥75%) | < 10 nM | > 75% | < 10 nM
